Measured values reported in the NIST ThermoML archive (doi:10.1021/je7002836).
± gives the expanded uncertainty stated by the source.

Key:
[1] = molar heat capacity at constant pressure; settings: 101 kPa, Liquid
[2] = 101 kPa, Liquid
[3] = molar heat capacity at constant pressure; xn = mol fraction of the nth substance listed; settings: 101 kPa, Liquid
[4] = xn = mol fraction of the nth substance listed; settings: 101 kPa, Liquid

Row | SMILES | molar heat capacity at constant pressure ([1]; 293.15 K) [J/K/mol] | molar heat capacity at constant pressure ([1]; 298.15 K) [J/K/mol] | molar heat capacity at constant pressure ([1]; 303.15 K) [J/K/mol] | molar heat capacity at constant pressure ([1]; 308.15 K) [J/K/mol] | molar heat capacity at constant pressure ([1]; 313.15 K) [J/K/mol] | molar heat capacity at constant pressure ([1]; 318.15 K) [J/K/mol] | mass density ([2]; 293.15 K) [kg/m3] | mass density ([2]; 298.15 K) [kg/m3] | mass density ([2]; 303.15 K) [kg/m3] | mass density ([2]; 308.15 K) [kg/m3] | mass density ([2]; 313.15 K) [kg/m3] | mass density ([2]; 318.15 K) [kg/m3] | molar heat capacity at constant pressure ([3]; 293.15 K, x2 = 0) [J/K/mol] | molar heat capacity at constant pressure ([3]; 298.15 K, x2 = 0) [J/K/mol] | molar heat capacity at constant pressure ([3]; 303.15 K, x2 = 0) [J/K/mol] | molar heat capacity at constant pressure ([3]; 308.15 K, x2 = 0) [J/K/mol] | molar heat capacity at constant pressure ([3]; 313.15 K, x2 = 0) [J/K/mol] | molar heat capacity at constant pressure ([3]; 318.15 K, x2 = 0) [J/K/mol] | mass density ([4]; 308.15 K, x2 = 0) [kg/m3] | also measured
1 | CCCC[n+]1cccc(C)c1.F[B-](F)(F)F [1-butyl-3-methylpyridinium tetrafluoroborate] | 385.8 ± 12 | 387.7 ± 12 | 390.1 ± 12 | 392.8 ± 12 | 395.9 ± 12 | 399.3 ± 12 | 1188.6 ± 7 | 1185.2 ± 6.9 | 1181.7 ± 6.8 | 1178.3 ± 6.7 | 1174.9 ± 6.6 | 1171.6 ± 6.6 | – | – | – | – | – | – | – | –
2 | CCCC[n+]1cccc(C)c1.F[B-](F)(F)F [1-butyl-3-methylpyridinium tetrafluoroborate] + C[N+](=O)[O-] | – | – | – | – | – | – | – | – | – | – | – | – | – | – | – | – | – | – | – | molar heat capacity at constant pressure ([3]; 293.15 K, x1 = 1): 385.8 ± 12 J/K/mol; molar heat capacity at constant pressure ([3]; 298.15 K, x1 = 1): 387.7 ± 12 J/K/mol; molar heat capacity at constant pressure ([3]; 303.15 K, x1 = 1): 390.1 ± 12 J/K/mol; molar heat capacity at constant pressure ([3]; 308.15 K, x1 = 1): 392.8 ± 12 J/K/mol; molar heat capacity at constant pressure ([3]; 313.15 K, x1 = 1): 395.9 ± 12 J/K/mol; molar heat capacity at constant pressure ([3]; 318.15 K, x1 = 1): 399.3 ± 12 J/K/mol; mass density ([4]; 293.15 K, x1 = 1): 1188.6 ± 3.6 kg/m3; mass density ([4]; 298.15 K, x1 = 1): 1185.2 ± 3.6 kg/m3; mass density ([4]; 303.15 K, x1 = 1): 1181.7 ± 3.5 kg/m3; mass density ([4]; 308.15 K, x1 = 1): 1178.3 ± 3.5 kg/m3; mass density ([4]; 313.15 K, x1 = 1): 1174.9 ± 3.5 kg/m3; mass density ([4]; 318.15 K, x1 = 1): 1171.6 ± 3.4 kg/m3
3 | CCO [ethanol] | 111.3 ± 3.4 | 113.3 ± 3.5 | 115.3 ± 3.6 | 117.5 ± 3.6 | 119.7 ± 3.7 | 122.1 ± 3.8 | 789.6 ± 3.7 | 785.3 ± 3.7 | 781 ± 3.8 | 776.7 ± 3.8 | 772.3 ± 3.9 | 767.8 ± 3.9 | – | – | – | – | – | – | – | –
4 | CCO [ethanol] + CCCC[n+]1cccc(C)c1.F[B-](F)(F)F | – | – | – | – | – | – | – | – | – | – | – | – | 111.3 ± 3.4 | 113.3 ± 3.5 | 115.3 ± 3.6 | 117.5 ± 3.6 | 119.7 ± 3.7 | 122.1 ± 3.8 | 776.7 ± 3.8 | mass density ([4]; 293.15 K, x2 = 0): 789.6 ± 3.7 kg/m3; mass density ([4]; 298.15 K, x2 = 0): 785.3 ± 3.7 kg/m3; mass density ([4]; 303.15 K, x2 = 0): 781 ± 3.8 kg/m3; mass density ([4]; 313.15 K, x2 = 0): 772.3 ± 3.9 kg/m3; mass density ([4]; 318.15 K, x2 = 0): 767.8 ± 3.9 kg/m3
5 | C[N+](=O)[O-] [nitromethane] | 106.6 ± 3.3 | 106.9 ± 3.3 | 107.3 ± 3.3 | 107.7 ± 3.3 | 108.2 ± 3.4 | 108.6 ± 3.4 | 1140.2 ± 3.3 | 1133.4 ± 3.2 | 1126.6 ± 3.1 | 1119.7 ± 3.1 | 1112.9 ± 3 | 1106 ± 2.9 | – | – | – | – | – | – | – | –
6 | O [water] + CCCC[n+]1cccc(C)c1.F[B-](F)(F)F | – | – | – | – | – | – | – | – | – | – | – | – | 75.4 ± 2.3 | 75.3 ± 2.3 | 75.3 ± 2.3 | 75.2 ± 2.3 | 75.2 ± 2.3 | 75.3 ± 2.3 | 994.1 ± 2.3 | –
